test system: Aspergillus niger; test: Antifungal activity against Aspergillus niger at 50 ug/disk by agar plate disk diffusion method; format: functional; conditions: read-out: IZ

| Structure (SMILES) | zone of inhibition at 50 µg/disc [mm] |
| --- | --- |
| Clc1ccccc1C(c1ccccc1)(c1ccccc1)n1ccnc1 [CLOTRIMAZOLE] | 21 |

test system: Proteus vulgaris; test: Antibacterial activity against Proteus vulgaris at 100 ug/disk by agar plate disk diffusion method; format: functional; conditions: read-out: IZ

| Structure (SMILES) | zone of inhibition at 100 µg/disc [mm] |
| --- | --- |
| O=c1[nH]c2ccccc2n(Cn2nnc3ccccc32)c1=O | 34 |
| O=C1c2ccccc2C(=O)N1Cn1c(=O)c(=O)[nH]c2ccccc21 | 31 |
| CN(C)c1ccc(/C=C/C(=O)n2c(=O)c(=O)[nH]c3ccccc32)cc1 | 33 |
| O=c1[nH]c2ccccc2n(Cn2cnc3ccccc32)c1=O | 32 |
| CC(=O)n1c(=O)c(=O)[nH]c2ccccc21 | 26 |
| COc1cc(O)ccc1/C=C/C(=O)n1c(=O)c(=O)[nH]c2ccccc21 | 18 |
| CC1=NNC(=O)C1Cn1c(=O)c(=O)[nH]c2ccccc21 (stereo not given) | 32 |
| O=c1[nH]c2ccccc2n(CN(c2ccccc2)c2ccccc2)c1=O | 30 |
| O=C(/C=C/c1ccccc1)n1c(=O)c(=O)[nH]c2ccccc21 | 30 |

test system: Candida albicans; test: Antifungal activity against Candida albicans at 100 ug/disk by agar plate disk diffusion method; format: functional; conditions: read-out: IZ

| Structure (SMILES) | zone of inhibition at 100 µg/disc [mm] |
| --- | --- |
| O=c1[nH]c2ccccc2n(Cn2nnc3ccccc32)c1=O | 20 |
| O=C1c2ccccc2C(=O)N1Cn1c(=O)c(=O)[nH]c2ccccc21 | 23 |
| CN(C)c1ccc(/C=C/C(=O)n2c(=O)c(=O)[nH]c3ccccc32)cc1 | 0 |
| O=c1[nH]c2ccccc2n(Cn2cnc3ccccc32)c1=O | 18 |
| CC(=O)n1c(=O)c(=O)[nH]c2ccccc21 | 0 |
| COc1cc(O)ccc1/C=C/C(=O)n1c(=O)c(=O)[nH]c2ccccc21 | 10 |
| CC1=NNC(=O)C1Cn1c(=O)c(=O)[nH]c2ccccc21 (stereo not given) | 21 |
| O=c1[nH]c2ccccc2n(CN(c2ccccc2)c2ccccc2)c1=O | 20 |
| O=C(/C=C/c1ccccc1)n1c(=O)c(=O)[nH]c2ccccc21 | 18 |

test system: Pseudomonas aeruginosa; test: Antibacterial activity against Pseudomonas aeruginosa at 50 ug/disk by agar plate disk diffusion method; format: functional; conditions: read-out: IZ

| Structure (SMILES) | zone of inhibition at 50 µg/disc [mm] |
| --- | --- |
| CCn1cc(C(=O)O)c(=O)c2ccc(C)nc21 [NALIDIXIC ACID] | 22 |

test system: Aspergillus niger; test: Antifungal activity against Aspergillus niger at 100 ug/disk by agar plate disk diffusion method; format: functional; conditions: read-out: IZ

| Structure (SMILES) | zone of inhibition at 100 µg/disc [mm] |
| --- | --- |
| O=c1[nH]c2ccccc2n(Cn2nnc3ccccc32)c1=O | 28 |
| O=C1c2ccccc2C(=O)N1Cn1c(=O)c(=O)[nH]c2ccccc21 | 23 |
| CN(C)c1ccc(/C=C/C(=O)n2c(=O)c(=O)[nH]c3ccccc32)cc1 | 0 |
| O=c1[nH]c2ccccc2n(Cn2cnc3ccccc32)c1=O | 25 |
| CC(=O)n1c(=O)c(=O)[nH]c2ccccc21 | 20 |
| COc1cc(O)ccc1/C=C/C(=O)n1c(=O)c(=O)[nH]c2ccccc21 | 16 |
| CC1=NNC(=O)C1Cn1c(=O)c(=O)[nH]c2ccccc21 (stereo not given) | 23 |
| O=c1[nH]c2ccccc2n(CN(c2ccccc2)c2ccccc2)c1=O | 28 |
| O=C(/C=C/c1ccccc1)n1c(=O)c(=O)[nH]c2ccccc21 | 24 |

test system: Escherichia coli; test: Antibacterial activity against Escherichia coli at 100 ug/disk by agar plate disk diffusion method; format: functional; conditions: read-out: IZ

| Structure (SMILES) | zone of inhibition at 100 µg/disc [mm] |
| --- | --- |
| O=c1[nH]c2ccccc2n(Cn2nnc3ccccc32)c1=O | 39 |
| O=C1c2ccccc2C(=O)N1Cn1c(=O)c(=O)[nH]c2ccccc21 | 30 |
| CN(C)c1ccc(/C=C/C(=O)n2c(=O)c(=O)[nH]c3ccccc32)cc1 | 33 |
| O=c1[nH]c2ccccc2n(Cn2cnc3ccccc32)c1=O | 33 |
| CC(=O)n1c(=O)c(=O)[nH]c2ccccc21 | 24 |
| COc1cc(O)ccc1/C=C/C(=O)n1c(=O)c(=O)[nH]c2ccccc21 | 16 |
| CC1=NNC(=O)C1Cn1c(=O)c(=O)[nH]c2ccccc21 (stereo not given) | 37 |
| O=c1[nH]c2ccccc2n(CN(c2ccccc2)c2ccccc2)c1=O | 30 |
| O=C(/C=C/c1ccccc1)n1c(=O)c(=O)[nH]c2ccccc21 | 26 |

test system: Staphylococcus aureus; test: Antibacterial activity against Staphylococcus aureus at 50 ug/disk by agar plate disk diffusion method; format: functional; conditions: read-out: IZ

| Structure (SMILES) | zone of inhibition at 50 µg/disc [mm] |
| --- | --- |
| CCn1cc(C(=O)O)c(=O)c2ccc(C)nc21 [NALIDIXIC ACID] | 24 |

test system: Staphylococcus aureus; test: Antibacterial activity against Staphylococcus aureus at 100 ug/disk by agar plate disk diffusion method; format: functional; conditions: read-out: IZ

| Structure (SMILES) | zone of inhibition at 100 µg/disc [mm] |
| --- | --- |
| O=c1[nH]c2ccccc2n(Cn2nnc3ccccc32)c1=O | 29 |
| O=C1c2ccccc2C(=O)N1Cn1c(=O)c(=O)[nH]c2ccccc21 | 29 |
| CN(C)c1ccc(/C=C/C(=O)n2c(=O)c(=O)[nH]c3ccccc32)cc1 | 18 |
| O=c1[nH]c2ccccc2n(Cn2cnc3ccccc32)c1=O | 36 |
| CC(=O)n1c(=O)c(=O)[nH]c2ccccc21 | 20 |
| COc1cc(O)ccc1/C=C/C(=O)n1c(=O)c(=O)[nH]c2ccccc21 | 16 |
| CC1=NNC(=O)C1Cn1c(=O)c(=O)[nH]c2ccccc21 (stereo not given) | 33 |
| O=c1[nH]c2ccccc2n(CN(c2ccccc2)c2ccccc2)c1=O | 26 |
| O=C(/C=C/c1ccccc1)n1c(=O)c(=O)[nH]c2ccccc21 | 20 |

test system: Escherichia coli; test: Antibacterial activity against Escherichia coli at 50 ug/disk by agar plate disk diffusion method; format: functional; conditions: read-out: IZ

| Structure (SMILES) | zone of inhibition at 50 µg/disc [mm] |
| --- | --- |
| CCn1cc(C(=O)O)c(=O)c2ccc(C)nc21 [NALIDIXIC ACID] | 25 |

test system: Candida albicans; test: Antifungal activity against Candida albicans at 50 ug/disk by agar plate disk diffusion method; format: functional; conditions: read-out: IZ

| Structure (SMILES) | zone of inhibition at 50 µg/disc [mm] |
| --- | --- |
| Clc1ccccc1C(c1ccccc1)(c1ccccc1)n1ccnc1 [CLOTRIMAZOLE] | 13 |

test system: Proteus vulgaris; test: Antibacterial activity against Proteus vulgaris at 50 ug/disk by agar plate disk diffusion method; format: functional; conditions: read-out: IZ

| Structure (SMILES) | zone of inhibition at 50 µg/disc [mm] |
| --- | --- |
| CCn1cc(C(=O)O)c(=O)c2ccc(C)nc21 [NALIDIXIC ACID] | 34 |

test system: Pseudomonas aeruginosa; test: Antibacterial activity against Pseudomonas aeruginosa at 100 ug/disk by agar plate disk diffusion method; format: functional; conditions: read-out: IZ

| Structure (SMILES) | zone of inhibition at 100 µg/disc [mm] |
| --- | --- |
| O=c1[nH]c2ccccc2n(Cn2nnc3ccccc32)c1=O | 39 |
| O=C1c2ccccc2C(=O)N1Cn1c(=O)c(=O)[nH]c2ccccc21 | 34 |
| CN(C)c1ccc(/C=C/C(=O)n2c(=O)c(=O)[nH]c3ccccc32)cc1 | 31 |
| O=c1[nH]c2ccccc2n(Cn2cnc3ccccc32)c1=O | 35 |
| CC(=O)n1c(=O)c(=O)[nH]c2ccccc21 | 29 |
| COc1cc(O)ccc1/C=C/C(=O)n1c(=O)c(=O)[nH]c2ccccc21 | 18 |
| CC1=NNC(=O)C1Cn1c(=O)c(=O)[nH]c2ccccc21 (stereo not given) | 39 |
| O=c1[nH]c2ccccc2n(CN(c2ccccc2)c2ccccc2)c1=O | 35 |
| O=C(/C=C/c1ccccc1)n1c(=O)c(=O)[nH]c2ccccc21 | 29 |

— ChEMBL document CHEMBL1153186, “In vitro antitubercular and antimicrobial activities of 1-substituted quinoxaline-2,3(1H,4H)-diones” (2010)
